US20220071932A1, “Compositions and Methods Against Stress-Induced Affective Disorders and Their Associated Symptoms” (The Trustees of Columbia University in the City of New York, priority 2019, published 2022)

Columns and labels:
[1] = tested on: NR2A subunit of the NMDAR; assay: Western blotting of hippocampus after fear memory recall; type: in vivo, mice; conditions: one week prior to CFC, (R,S)-ketamine 30 mg/kg, FENM 20 mg/kg, vs saline
Method: Samples from mouse hippocampus and prefrontal cortex were dissected, snap frozen, and stored at −80° C. Brain tissue was homogenized in RIPA buffer with protease inhibitor (Thermo Fisher Scientific, Waltham, Mass.; Roche, Basel, Switzerland) using a motorized pestle mixer (Argos Technologies, Vernon Hills, Ill.) and spun at 1000 g×14 minutes to remove cell debris. Protein concentration was determined using a Bradford protein assay (Bio-Rad, Hercules, Calif.). 4× Laemmli buffer and β-mercaptoethanol (Bio-Rad, Hercules, Calif.) was added to the samples, which were then boiled at 90° C. for five minutes. 50 μg of each sample was separated by SDS/PAGE, and proteins were transferred onto PVDF membrane (GE Healthcare Life Sciences, Marlborough, Mass.). Membranes were then blocked in 1×TBS with 0.1% Tween-20 and 5% BSA for 1 hr at RT. Incubation with primary antibodies was performed at 4° C. overnight (rabbit anti-β-tubulin, 1:10000, Abc am, Cambridge, UK, ab6046; rabbit anti-NR2A, 1:1000, Alomone Labs, Jerusalem, Israel, AGC-002; rabbit anti-NR2B, 1:600, Alomone Labs, Jerusalem, Israel, AGC-003; mouse anti-GluR1, 1:1000, Millipore Sigma, Burlington, Mass., MAB2263) in 1×TBS with 0.1% Tween-20 and 5% BSA. […]

129S6/SvEv mice [2] = assay: Anxiety-like behavior, summary of anxiety tests (OF, MB, EPM); type: in vivo; conditions: (R,S)-ketamine 30 mg/kg, FENM 20 mg/kg, vs saline
Method: Testing was performed as previously described (47). Briefly, the maze is a plus-cross-shaped apparatus consisting of four arms, two open and two enclosed by walls, linked by a central platform at a height of 50 cm from the floor. Mice were individually placed in the center of the maze facing an open arm and were allowed to explore the maze for 5 min. The time spent in and the number of entries into the open arms was used as an anxiety index. Videos were scored using ANY-maze behavior tracking software (Stoelting, Wood Dale, Ill.).
The OF assay was administered as previously described (47). Briefly, motor activity was quantified in 4 Plexiglas open field boxes 43×43 cm^2 (MED Associates, Georgia, Vt.). Two sets of 16 pulse-modulated infrared photobeams on opposite walls 2.5-cm apart recorded x-y ambulatory movements. Activity chambers were computer interfaced for data sampling at 100-ms resolution. The computer defined grid lines that dividing center and surround regions, with the center square consisting of four lines 11 cm from the wall.
The MB assay was conducted in a clean cage (10.5 in×5.5 in) containing soft pliable Beta Chip bedding (Northeastern Products Corp, Warrensburg, N.Y.). The cage contained 16 marbles set up in 4 rows of 4 across. Mice were given 30 minutes to explore and bury. At the end of the assay, the percentage of marbles buried was calculated.

129S6/SvEv mice [3] = assay: Contextual fear conditioning (CFC), 3-shock; freezing; type: in vivo; conditions: for p, Freezing (%), CFC Re-exposure 2, Saline vs. drug: drug 5 min after re-exposure 1; for Behavior: Fear: dose 30 mg/kg
Method: A 3-shock CFC paradigm was administered as previously described (45, 46). CFC was conducted in chambers obtained from Med Associates (St. Albans, Vt.), with internal dimensions of approximately 20 cm wide×16 cm deep×20.5 cm high. The chambers had metal walls on each side, clear plastic front and back walls and ceilings, and stainless-steel bars on the floor. A house light (CM1820 bulb, 28v, 100 mA) mounted directly above the chamber provided illumination. Each chamber was located inside a larger, insulated, plastic cabinet that provided protection from outside light and noise. Each cabinet contained a ventilation fan that was operated during the sessions. A paper towel dabbed with lemon solution was placed underneath the chamber floor. Mice were held outside the experimental room in their home cages prior to testing and transported to the conditioning apparatus individually in standard mouse cages Chambers were cleaned with 70% EtOH between each set of mice. Mice were placed into the conditioning chamber and received shocks at 180 s, 240 s, and 300 s (2 s duration, 0.75 mA). Fifteen seconds after the last shock, mice were removed from the chamber. Overall, the training session lasted 317 s. […] All sessions were scored for freezing using FreezeFrame4.

[4] = 30 mg/kg, drug 1 week before stress, FIG. 1C
[5] = 30 mg/kg, drug 5 minutes after stress, FIG. 2C
[6] = 5 min prior to CFC, (R,S)-ketamine 30 mg/kg, FENM 20 mg/kg, vs saline
[7] = Saline vs. (R,S)-ketamine (30 mg/kg), FIG. 8D
[8] = Saline vs. (R,S)-ketamine (30 mg/kg), FIG. 8F

For `CNC1(c2ccccc2Cl)CCCCC1=O` (racemic) [(R,S)-ketamine, reference compound], the “NR2A expression in the hippocampus” value [1] was “comparable”, the “behavior in all anxiety tests, with the exception of the time spent in the center of the OF” value (129S6/SvEv mice [2]; 5 min after context re-exposure 1) was “did not alter behavior” and the “behavior in all anxiety tests” value (129S6/SvEv mice [2]; 5 minutes prior to context re-exposure 1 (24 h after CFC)) was “did not alter behavior”. The “p, Fisher's LSD Saline vs. drug, CFC Re-exposure Freezing Min 1 (%)” value (129S6/SvEv mice [3]; [4]) was 0.0101, the “p, Fisher's LSD Saline vs. drug, CFC Re-exposure Freezing Min 2 (%)” value (129S6/SvEv mice [3]; [4]) was 0.0012 and the “p, Fisher's LSD Saline vs. drug, CFC Re-exposure Freezing Min 3 (%)” value (129S6/SvEv mice [3]; [4]) was 0.0320. The “p, Fisher's LSD Saline vs. drug, CFC Re-exposure Freezing Min 4 (%)” value (129S6/SvEv mice [3]; [4]) was 0.0592, the “p, Fisher's LSD Saline vs. drug, CFC Re-exposure Freezing Min 5 (%)” value (129S6/SvEv mice [3]; [4]) was 0.4016 and the “p, Fisher's LSD Saline vs. drug, CFC Re-exposure Freezing (%)” value (129S6/SvEv mice [3]; 30 mg/kg, drug 1 week before stress, after ANOVA, FIG. 1D) was 0.0086. For the same compound, the “p, Fisher's LSD Saline vs. drug, CFC Re-exposure Freezing (%)” value (129S6/SvEv mice [3]; 30 mg/kg, drug 1 week before stress, after RMANOVA, FIG. 1C) was 0.0086, the “p, Fisher's PLSD Saline vs. drug, CFC Re-exposure Freezing Min 1 (%)” value (129S6/SvEv mice [3]; [5]) was 0.6701 and the “p, Fisher's PLSD Saline vs. drug, CFC Re-exposure Freezing Min 2 (%)” value (129S6/SvEv mice [3]; [5]) was 0.0587. For the same compound, the “p, Fisher's PLSD Saline vs. drug, CFC Re-exposure Freezing Min 3 (%)” value (129S6/SvEv mice [3]; [5]) was 0.1358, the “p, Fisher's PLSD Saline vs. drug, CFC Re-exposure Freezing Min 4 (%)” value (129S6/SvEv mice [3]; [5]) was 0.5515 and the “p, Fisher's PLSD Saline vs. drug, CFC Re-exposure Freezing Min 5 (%)” value (129S6/SvEv mice [3]; [5]) was 0.1641. The “p, Fisher's PLSD Saline vs. drug, CFC Re-exposure Freezing (%)” value (129S6/SvEv mice [3]; 30 mg/kg, drug 5 minutes after stress, after RMANOVA, FIG. 2C) was 0.4342, the “fear expression during CFC re-exposure” value (129S6/SvEv mice [3]; 1 week prior to CFC, (R,S)-ketamine 30 mg/kg, FENM 20 and 30 mg/kg, vs saline) was “decreased fear expression” and the “fear expression during re-exposure 2” value (129S6/SvEv mice [3]; 5 min after context re-exposure 1 (24 h before re-exposure 2), (R,S)-ketamine 30 mg/kg, FENM 20 mg/kg, vs saline) was “but not (R,S)-ketamine, significantly decreased”. The “fear expression during CFC re-exposure 1” value (129S6/SvEv mice [3]; [6]) was “significantly decreased fear expression”, the “fear expression during CFC re-exposure 2” value (129S6/SvEv mice [3]; [6]) was “significantly decreased fear expression” and the “freezing during CFC training” value (129S6/SvEv mice [3]; [6]) was “significantly increased freezing”. The “p, Freezing (%), CFC Re-exposure 2, Saline vs. drug” value (129S6/SvEv mice [3]; Fisher's LSD after ANOVA, FENM 20 mg/kg, (R,S)-ketamine 30 mg/kg, FIG. 4G) was 0.9122, the “p, Freezing (%), CFC Re-exposure 2, Saline vs. drug” value (129S6/SvEv mice [3]; Fisher's LSD after RMANOVA, FENM 20 mg/kg, ketamine 30 mg/kg, FIG. 4F) was 0.9122 and the “p, Freezing (%), CFC Training, Saline vs. drug” value (129S6/SvEv mice [3]; Fisher's LSD after RMANOVA, drug 5 min before CFC, (R,S)-ketamine 30 mg/kg, FENM dose lies beyond the rows shown, FIG. 8B) was 0.0024. The “Behavior: Fear” value (129S6/SvEv mice [3]; Prophylactic (5 min before stress)) was “↓”, the “Behavior: Fear” value (129S6/SvEv mice [3]; Prophylactic (7 days before stress)) was “↓” and the “CFC Training, Average Freezing, p (Fisher's LSD)” value (129S6/SvEv mice [3]; Saline vs. (R,S)-ketamine (30 mg/kg), FIG. 8C) was 0.0024. The “CFC Re-exposure 1, Freezing Min 1 (%), p (Fisher's LSD)” value (129S6/SvEv mice [3]; [7]) was 0.0066, the “CFC Re-exposure 1, Freezing Min 2 (%), p (Fisher's LSD)” value (129S6/SvEv mice [3]; [7]) was <0.0001 and the “CFC Re-exposure 1, Freezing Min 3 (%), p (Fisher's LSD)” value (129S6/SvEv mice [3]; [7]) was <0.0001. The “CFC Re-exposure 1, Freezing Min 4 (%), p (Fisher's LSD)” value (129S6/SvEv mice [3]; [7]) was <0.0001, the “CFC Re-exposure 1, Freezing Min 5 (%), p (Fisher's LSD)” value (129S6/SvEv mice [3]; [7]) was <0.0001 and the “CFC Re-exposure 2, Freezing Min 1 (%), p (Fisher's LSD)” value (129S6/SvEv mice [3]; [8]) was 0.4378. The “CFC Re-exposure 2, Freezing Min 2 (%), p (Fisher's LSD)” value (129S6/SvEv mice [3]; [8]) was 0.0304, the “CFC Re-exposure 2, Freezing Min 4 (%), p (Fisher's LSD)” value (129S6/SvEv mice [3]; [8]) was <0.0001 and the “CFC Re-exposure 2, Freezing Min 5 (%), p (Fisher's LSD)” value (129S6/SvEv mice [3]; [8]) was <0.0001. The “CFC Re-exposure 1, Freezing (%), p (Fisher's LSD)” value (129S6/SvEv mice [3]; Saline vs. (R,S)-ketamine (30 mg/kg), after ANOVA, FIG. 8E) was <0.0001, the “CFC Re-exposure 2, Freezing (%), p (Fisher's LSD)” value (129S6/SvEv mice [3]; Saline vs. (R,S)-ketamine (30 mg/kg), after ANOVA, FIG. 8G) was <0.0001 and the “CFC Re-exposure 1, Freezing (%), p (Fisher's LSD)” value (129S6/SvEv mice [3]; Saline vs. (R,S)-ketamine (30 mg/kg), after RMANOVA, FIG. 8D) was <0.0001. For the same compound, the “CFC Re-exposure 2, Freezing (%), p (Fisher's LSD)” value (129S6/SvEv mice [3]; Saline vs. (R,S)-ketamine (30 mg/kg), after RMANOVA, FIG. 8F) was <0.0001, the “CFC Re-exposure 2, Freezing Min 3 (%), p (Fisher's LSD)” value (129S6/SvEv mice [3]; Saline vs. ketamine (30 mg/kg), FIG. 8F) was 0.0033 and the “behavior during CFC training” value (129S6/SvEv mice [3]; one week prior to 3-shock CFC (c-fos / Western blot cohort), (R,S)-ketamine 30 mg/kg, FENM 20 mg/kg, vs saline) was “did not alter behavior”. For the same compound, the freezing upon re-exposure (129S6/SvEv mice [3]; one week prior to 3-shock CFC, re-exposed five days later, (R,S)-ketamine 30 mg/kg, FENM 20 mg/kg, vs saline) was “significantly reduced freezing”.
